Assay results: US12589087B2, “Enantiomer selective action on neurotransmission” (The Board of Trustees of the Leland Stanford Junior …, priority 2021, dated 2026)

Tests used:
GABAB (B1/B2) = biological target: T1, GABAB (B1/B2) (Homo sapiens, UniProt Q9UBS5); test: functional assay, Ca2+-dependent fluorimetry in RBL cells; assay type: cell-based; conditions: 100 μM
T1 construct: host or cells: RBL cells
Description: Functional assays of all GABAA, NMDA (GluN2A-GluN2D) and AMPA (GluA2) receptor subunits were performed by SB Drug Discovery as a part of their CNS discovery panel using FLIPR technology. Briefly, receptor-expressing HEK 293 cell lines were incubated in a red membrane potential dye in HEPES:HBSS pH 7.4 buffer and the fluorescence (λex: 488, λex: 510-570) was monitored over time as the test compounds and/or reference compounds were added to the solution. In agonist assay, only test compounds were added. In positive allosteric modulator assay, cells were preincubated with test compounds and then low concentration (approximately EC20) of an appropriate agonist was added. In antagonist assay, cells were preincubated with test compounds and then high concentration (approximately EC80) of an appropriate agonist was added. For GABAA assays, GABA was used as the agonist, picrotoxin was used as the reference antagonist and allopregnanolone was used as the reference positive allosteric modulator (PAM). […] All compounds were tested at 7 concentration points in triplicate and EC50/IC50 was determined where applicable. […]
All receptor assays were performed exactly as described in Example 1. […] All compounds were tested at 7 concentrations in triplicate and EC50/IC50 was determined where applicable. […]

mGluR1 = test: radioligand binding assay, cerebellum membranes; conditions: mGluR1, rat; 100 μM
Description: Nonspecific AMPA, kainate and NMDA binding assays were performed by Eurofins Discovery (Cerep) using rat cerebral cortex membranes and radiolabeled [^3H]AMPA, [^3H]kainic acid and [^3H]CGP 39653, respectively. All compounds were tested at a single concentration of 100 uM in triplicate. mGluR1, mGluR2, mGluR5 and GABAB binding assays were performed by Eurofins Discovery. mGluR1 assay was performed using rat cerebellum membranes and radiolabeled [^3H]quisqalic acid. mGluR2 assay was performed using recombinant Chem-1 cells and [^3H]LY341495. mGluR5 and GABAB binding assays were performed using recombinant CHO-K1 cells and […], respectively. All compounds were tested at a single concentration of 100 uM in triplicate.
All receptor assays were performed exactly as described in Example 1. Functional assays of all GABAA, NMDA (GluN2A-GluN2D) and AMPA (GluA2) receptor subunits were performed by SB Drug Discovery as a part of their CNS discovery panel using FLIPR technology. All compounds were tested at 7 concentrations in triplicate and EC50/IC50 was determined where applicable. Functional GABAB assay was performed by Eurofins Discovery (Cerep) using Ca^2+-dependent fluorimetry in RBL cells expressing human GABAB (B1/B2) receptor. All compounds were tested at a single concentration of 100 uM in triplicate. […]

[1] = biological target: T2, human glutamine synthetase (Homo sapiens, UniProt P15104); test: Catalysis of 2MeGlu C5-amidation by glutamine synthetase; assay type: biochemical
T2 construct: purchased Abcam ab222354
T2 sequence (P15104 whole entry): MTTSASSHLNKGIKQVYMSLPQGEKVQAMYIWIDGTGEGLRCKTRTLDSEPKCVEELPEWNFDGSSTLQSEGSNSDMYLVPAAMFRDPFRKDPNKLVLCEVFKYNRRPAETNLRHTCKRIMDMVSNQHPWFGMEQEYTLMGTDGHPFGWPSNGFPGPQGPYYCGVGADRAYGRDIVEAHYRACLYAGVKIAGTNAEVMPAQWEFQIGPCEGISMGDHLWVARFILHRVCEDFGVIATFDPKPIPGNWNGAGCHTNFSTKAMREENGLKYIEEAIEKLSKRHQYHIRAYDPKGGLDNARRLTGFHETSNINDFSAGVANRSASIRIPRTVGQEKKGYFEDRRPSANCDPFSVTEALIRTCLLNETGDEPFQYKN
Description: The procedure was adapted from an existing protocol. To a reaction mixture in a 1.5 mL microcentrifuge tube containing 10 mM substrate, 10 mM ATP, 20 mM MgCl2, 40 mM NH4Cl, 25 mM 2-mercaptoethanol in 100 mM imidazole-HCl buffer pH 7.0, recombinant human glutamine synthetase (final concentration: 5 ng/mL) was added. The tubes were incubated in a preheated thermomixer at 37° C. and shaken at 600 rpm (30 s on, 30 s off). 5 μL aliquots were collected in triplicate every 5 min and immediately diluted with 195 μL of cold 60% ACN containing 10 μM Glu-d5 and Gln-d5 as internal standards in a 96 well plate. After collecting all samples, 200 μL of ACN was added to all wells and the plate was shaken at 1000 rpm for 5 min at room temperature, and then stored at −80° C. until analysis.

T1 sequence (Q9UBS5 20-961): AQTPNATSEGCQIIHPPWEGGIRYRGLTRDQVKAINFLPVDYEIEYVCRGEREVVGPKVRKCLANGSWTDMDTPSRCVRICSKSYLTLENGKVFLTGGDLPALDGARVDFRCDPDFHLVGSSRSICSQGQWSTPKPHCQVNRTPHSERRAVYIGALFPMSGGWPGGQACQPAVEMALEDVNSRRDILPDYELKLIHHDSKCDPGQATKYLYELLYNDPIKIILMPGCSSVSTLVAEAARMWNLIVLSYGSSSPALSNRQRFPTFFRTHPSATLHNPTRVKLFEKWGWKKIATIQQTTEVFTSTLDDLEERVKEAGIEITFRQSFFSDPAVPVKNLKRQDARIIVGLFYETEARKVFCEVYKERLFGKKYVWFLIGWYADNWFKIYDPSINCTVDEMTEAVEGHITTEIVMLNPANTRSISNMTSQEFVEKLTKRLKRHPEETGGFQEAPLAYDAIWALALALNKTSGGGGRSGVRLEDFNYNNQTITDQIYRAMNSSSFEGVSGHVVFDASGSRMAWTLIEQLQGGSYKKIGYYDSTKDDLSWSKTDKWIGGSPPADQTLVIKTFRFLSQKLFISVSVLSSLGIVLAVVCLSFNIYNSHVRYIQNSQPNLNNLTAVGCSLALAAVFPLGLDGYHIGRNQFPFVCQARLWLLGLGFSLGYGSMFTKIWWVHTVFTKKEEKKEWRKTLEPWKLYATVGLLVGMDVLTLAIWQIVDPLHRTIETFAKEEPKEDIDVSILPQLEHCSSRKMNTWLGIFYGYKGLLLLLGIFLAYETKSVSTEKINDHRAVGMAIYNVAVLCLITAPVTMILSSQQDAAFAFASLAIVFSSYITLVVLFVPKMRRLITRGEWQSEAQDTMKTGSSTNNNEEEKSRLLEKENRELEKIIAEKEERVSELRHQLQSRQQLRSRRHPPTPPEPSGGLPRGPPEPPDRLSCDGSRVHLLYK
T1 sequence (O75899 42-941 partner): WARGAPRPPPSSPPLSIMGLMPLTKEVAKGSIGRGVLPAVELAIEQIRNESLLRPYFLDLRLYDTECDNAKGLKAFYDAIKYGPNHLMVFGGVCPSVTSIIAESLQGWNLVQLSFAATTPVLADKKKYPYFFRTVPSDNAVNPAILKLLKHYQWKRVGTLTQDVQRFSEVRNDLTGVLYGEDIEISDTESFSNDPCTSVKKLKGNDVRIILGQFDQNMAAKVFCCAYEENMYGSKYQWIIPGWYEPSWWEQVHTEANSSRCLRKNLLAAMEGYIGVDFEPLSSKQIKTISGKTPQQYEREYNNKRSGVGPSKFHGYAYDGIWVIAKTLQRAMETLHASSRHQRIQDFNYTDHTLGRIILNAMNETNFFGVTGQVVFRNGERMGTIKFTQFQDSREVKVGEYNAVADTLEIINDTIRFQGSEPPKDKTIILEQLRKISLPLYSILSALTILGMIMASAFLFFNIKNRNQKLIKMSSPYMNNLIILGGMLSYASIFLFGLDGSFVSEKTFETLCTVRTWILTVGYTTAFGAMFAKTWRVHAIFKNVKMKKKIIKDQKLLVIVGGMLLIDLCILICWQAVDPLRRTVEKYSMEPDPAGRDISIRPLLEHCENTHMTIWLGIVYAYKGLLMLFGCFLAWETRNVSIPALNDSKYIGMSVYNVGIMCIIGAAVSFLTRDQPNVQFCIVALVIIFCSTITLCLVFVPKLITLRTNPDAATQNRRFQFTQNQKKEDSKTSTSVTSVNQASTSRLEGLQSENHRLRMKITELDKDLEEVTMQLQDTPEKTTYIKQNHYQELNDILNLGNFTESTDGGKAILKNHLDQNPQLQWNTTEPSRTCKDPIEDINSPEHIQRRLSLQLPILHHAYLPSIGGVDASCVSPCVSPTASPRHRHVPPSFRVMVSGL

Row | SMILES | % of agonist response (GABAB (B1/B2)) [%] | % of radioligand binding inhibition (mGluR1) [%] | substrate of GS (amidation to 2MeGln) [1]
1 | C[C@@](N)(CCC(=O)O)C(=O)O [(R)-2MeGlu, (R)-2-methylglutamic acid] | 0 | −3 | not a substrate
2 | C[C@](N)(CCC(=O)O)C(=O)O [(S)-2MeGlu, (S)-2-methylglutamic acid] | 0 | 6 | substrates
